Experiments:
SK-BR-3 tumor cells = assay: Inhibition of in vitro proliferation of tumor cells by compounds (CTG, 6 days); assay type: cell-based; settings: Homo sapiens, SK-BR-3, 144 h, read-out: IC50 in inhibiting in vitro proliferation of SK-BR-3 cells
Procedure: (§1) This experiment was intended to detect the inhibitory activity of the pharmaceutical compounds of the present disclosure against the in vitro proliferation of U87MG cells (Cell Bank, Chinese Academy of Sciences, Catalog #TCHu138) and SK-BR-3 tumor cells (human breast cancer cells, ATCC, Cat #HTB-30). The cells were treated in vitro with a compound at different concentrations. After 6 days of culture, the proliferation of cells was tested using CTG (CellTiter-Glo® Luminescent Cell Viability Assay, Promega, Cat #G7573) reagents, and the in vitro activity of the compound was evaluated according to IC50 value.
(§2) The method for testing the inhibition of the in vitro proliferation of U87MG cells was described below as an example for the method for assaying for the inhibitory activity of the compounds of the present disclosure against the in vitro proliferation of tumor cells.
(§3) 1. Cell culture: U87MG and SK-BR-3 cells were cultured in EMEM medium (GE, Cat #SH30024.01) containing 10% FBS and McCoy's 5A medium (Gibco, Cat #16600-108) containing 10% FBS, respectively.
(§4) 2. Cell preparation: U87MG and SK-BR-3 cells growing at log phase were washed once with PBS (phosphate buffer, Shanghai BasalMedia Technologies Co., Ltd.) and then digested with 2-3 mL of trypsin (0.25% Trypsin-EDTA (1×), Gibico, Life Technologies) for 2-3 min After the cells were completely digested, 10-15 mL of cell culture media were added to elute the digested cells. The mixtures were centrifuged at 1000 rpm for 5 min, and the supernatants were discarded. Then the cells were resuspended in 10-20 mL of cell culture media to give single-cell suspensions.
(§5) 3. Cell plating: the U87MG and SK-BR-3 single-cell suspensions were each well mixed and adjusted with cell culture media to cell densities of 2.75×10^3 cells/mL and 8.25×10^3 cells/mL, respectively. The adjusted cell suspensions were each well mixed and added to 96-well cell culture plates at 180 μL/well. To each of the peripheral wells of the 96-well plates was added 200 μL of media only. The plate was incubated in an incubator for 24 h (37° C., 5% CO2).
(§6) 4. Compound preparation: the compound was dissolved in DMSO (dimethyl sulfoxide, Shanghai Titan Scientific Co., Ltd.) to prepare a stock solution at an initial concentration of 10 mM.
(§7) Small molecule compounds were prepared at an initial concentration of 500 nM as follows.
(§8) Different test samples at 100 μM (30 μL) were added to the first column of a 96-well U-bottom plate, and 20 μL of DMSO was added to each well of the second column through the eleventh column. […]
(§9) 7. Plate reading: the 96-well cell culture plate was taken out and tested in a microplate reader (BMG labtech, PHERAstar FS) for chemiluminescence.
(§10) Data were processed and analyzed using Microsoft Excel and Graphpad Prism 5.

U87MG cells = assay: as above; assay type: cell-based; settings: Homo sapiens, U-87 MG, 144 h, read-out: IC50 in inhibiting in vitro proliferation of U87 cells
Procedure: as §1, §2, §3, §4, §5, §6, §7, §8, §9, §10

[1] = tested on: human breast cancer cells trastuzumab drug-resistant strain (herceptin) JIMT-1 xenograft tumor; assay: Drug efficacy on JIMT-1 tumor-bearing mice; assay type: in vivo, nu/nu nude mice; settings: 10 mg/kg; two intraperitoneal injections; observation for 34 days
Procedure: The tumor volumes and body weights were measured twice a week and the results were recorded.
Tumor volume (V) was calculated as: V=½×Llong×Lshort^2

Compound | IC50 (SK-BR-3 tumor cells) | IC50 (U87MG cells) | tumor inhibition rate [1]
CC[C@@]1(O)C(=O)OCc2c1cc1n(c2=O)Cc2c-1nc1cc(F)c(C)c3c1c2[C@@H](NC(=O)C1(O)CC1)CC3 [Compound 1, N-((1S,9S)-9-ethyl-5-fluoro-9-hydroxy-4-methyl-10,13-dioxo-2,3,9,10,13,15-hexahydro-1H,12H-benzo[de]pyrano[3′,4′:6,7]indolizino[1,2-b]quinolin-1-yl)-1-hydroxycyclopropane-1-carboxamide] | 0.12 nM | 0.23 nM | 
CC[C@@]1(O)C(=O)OCc2c1cc1n(c2=O)Cc2c-1nc1cc(F)c(C)c3c1c2[C@@H](NC(=O)C1(O)CCCC1)CC3 [Compound 4, N-((1S,9S)-9-ethyl-5-fluoro-9-hydroxy-4-methyl-10,13-dioxo-2,3,9,10,13,15-hexahydro-1H,12H-benzo[de]pyrano[3′,4′:6,7]indolizino[1,2-b]quinolin-1-yl)-1-hydroxycyclopentane-1-carboxamide] | 1.9 nM |  | 
CC[C@@]1(O)C(=O)OCc2c1cc1n(c2=O)Cc2c-1nc1cc(F)c(C)c3c1c2[C@@H](NC(=O)C1(CO)CC1)CC3 [Compound 5, N-((1S,9S)-9-ethyl-5-fluoro-9-hydroxy-4-methyl-10,13-dioxo-2,3,9,10,13,15-hexahydro-1H,12H-benzo[de]pyrano[3′,4′:6,7]indolizino[1,2-b]quinolin-1-yl)-1-(hydroxymethyl)cyclopropane-1-carboxamide] |  | 4.81 nM | 
T-DM1 |  |  | no inhibition effect on tumors
